Data as given in patent US11725011B2, “Bicyclic urea kinase inhibitors and uses thereof” (The Broad Institute, Inc., priority 2016, dated 2023).

How the values were obtained:
[1] = target: EPHA6 (Homo sapiens (Human), UniProt Q9UF33); assay: KINOMEscan; format: binding; settings: 1 uM
[2] = target: MUSK (Homo sapiens (Human), UniProt O15146); assay: KINOMEscan; format: binding; settings: 1 uM
[3] = target: SGK (Homo sapiens (Human), UniProt O00141); assay: KINOMEscan; format: binding; settings: 1 uM
[4] = target: RET (M918T) (Homo sapiens (Human), UniProt P07949, M918T); assay: KINOMEscan; format: binding; settings: 1 uM
[5] = target: ERK4 (Homo sapiens (Human), UniProt P31152); assay: KINOMEscan; format: binding; settings: 1 uM
[6] = target: ABL1 (Y253F)-phosphorylated (Homo sapiens (Human), UniProt P00519, Y253F); assay: KINOMEscan; format: binding; settings: 1 uM
[7] = target: KIT (L576P) (Homo sapiens (Human), UniProt P10721, L576P); assay: KINOMEscan; format: binding; settings: 1 uM
[8] = target: ERN1 (Homo sapiens (Human), UniProt O75460); assay: KINOMEscan; format: binding; settings: 1 uM
[9] = target: PIM1 (Homo sapiens (Human), UniProt P11309); assay: KINOMEscan; format: binding; settings: 1 uM
[10] = target: FLT3 (D835Y) (Homo sapiens (Human), UniProt P36888, D835Y); assay: KINOMEscan; format: binding; settings: 1 uM
[11] = target: RET (V804L) (Homo sapiens (Human), UniProt P07949, V804L); assay: KINOMEscan; format: binding; settings: 1 uM
[12] = target: PRKCQ (Homo sapiens (Human), UniProt Q04759); assay: KINOMEscan; format: binding; settings: 1 uM
[13] = target: TNNI3K (Homo sapiens (Human), UniProt Q59H18); assay: KINOMEscan; format: binding; settings: 1 uM
Sequence of TNNI3K (Q59H18 whole entry): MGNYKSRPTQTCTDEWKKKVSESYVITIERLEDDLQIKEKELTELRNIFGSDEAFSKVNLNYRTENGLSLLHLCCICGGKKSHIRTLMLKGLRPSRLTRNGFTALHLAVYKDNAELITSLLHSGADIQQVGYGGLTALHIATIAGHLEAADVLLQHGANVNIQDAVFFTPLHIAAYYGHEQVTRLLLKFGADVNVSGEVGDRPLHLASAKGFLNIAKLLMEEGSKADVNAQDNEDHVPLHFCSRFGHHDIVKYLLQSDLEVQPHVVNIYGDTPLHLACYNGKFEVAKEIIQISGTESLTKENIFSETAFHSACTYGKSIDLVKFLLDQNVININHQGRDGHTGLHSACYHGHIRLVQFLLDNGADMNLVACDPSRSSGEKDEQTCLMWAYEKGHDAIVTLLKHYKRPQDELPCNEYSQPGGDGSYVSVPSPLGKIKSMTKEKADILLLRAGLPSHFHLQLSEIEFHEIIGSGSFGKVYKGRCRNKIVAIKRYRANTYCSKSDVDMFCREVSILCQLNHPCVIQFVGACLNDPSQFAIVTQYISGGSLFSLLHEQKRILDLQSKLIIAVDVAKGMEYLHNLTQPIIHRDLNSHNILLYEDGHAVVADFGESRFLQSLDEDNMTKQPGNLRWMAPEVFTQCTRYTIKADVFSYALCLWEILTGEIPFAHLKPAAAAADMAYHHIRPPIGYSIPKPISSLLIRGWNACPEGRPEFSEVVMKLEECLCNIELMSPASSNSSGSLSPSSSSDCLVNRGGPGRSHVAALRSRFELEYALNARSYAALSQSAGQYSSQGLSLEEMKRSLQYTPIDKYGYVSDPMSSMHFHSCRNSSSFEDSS

[14] = target: ASK2 (Homo sapiens (Human), UniProt O95382); assay: KINOMEscan; format: binding; settings: 1 uM
[15] = target: ABL1-nonphosphorylated (Homo sapiens (Human), UniProt P00519); assay: KINOMEscan; format: binding; settings: 1 uM
[16] = target: TTK (Homo sapiens (Human), UniProt P33981); assay: KINOMEscan; format: binding; settings: 1 uM
[17] = target: PLK3 (Homo sapiens (Human), UniProt Q9H4B4); assay: KINOMEscan; format: binding; settings: 1 uM
[18] = target: ZAP70 (Homo sapiens (Human), UniProt P43403); assay: KINOMEscan; format: binding; settings: 1 uM
[19] = target: RSK4 (Kin.Dom.1-N-terminal) (Homo sapiens (Human), UniProt Q9UK32); assay: KINOMEscan; format: binding; settings: 1 uM
[20] = target: NDR1 (Homo sapiens (Human), UniProt Q15208); assay: KINOMEscan; format: binding; settings: 1 uM
[21] = target: ABL1 (H396P)-phosphorylated (Homo sapiens (Human), UniProt P00519, H396P); assay: KINOMEscan; format: binding; settings: 1 uM
[22] = target: ABL1 (H396P)-nonphosphorylated (Homo sapiens (Human), UniProt P00519, H396P); assay: KINOMEscan; format: binding; settings: 1 uM
[23] = target: GAK (Homo sapiens (Human), UniProt O14976); assay: KINOMEscan; format: binding; settings: 1 uM
[24] = target: NEK6 (Homo sapiens (Human), UniProt Q9HC98); assay: KINOMEscan; format: binding; settings: 1 uM
[25] = target: EGFR (L747-T751del, Sins) (Homo sapiens (Human), UniProt P00533, DEL747-751/INS746S); assay: KINOMEscan; format: binding; settings: 1 uM
[26] = target: FLT3 (R834Q) (Homo sapiens (Human), UniProt P36888, R834Q); assay: KINOMEscan; format: binding; settings: 1 uM
[27] = target: KIT (Homo sapiens (Human), UniProt P10721); assay: KINOMEscan; format: binding; settings: 1 uM
[28] = target: WEE2 (Homo sapiens (Human), UniProt P0C1S8); assay: KINOMEscan; format: binding; settings: 1 uM
[29] = target: EGFR (L861Q) (Homo sapiens (Human), UniProt P00533, L861Q); assay: KINOMEscan; format: binding; settings: 1 uM
Sequence of EGFR (L861Q) (P00533 25-1210 L861Q): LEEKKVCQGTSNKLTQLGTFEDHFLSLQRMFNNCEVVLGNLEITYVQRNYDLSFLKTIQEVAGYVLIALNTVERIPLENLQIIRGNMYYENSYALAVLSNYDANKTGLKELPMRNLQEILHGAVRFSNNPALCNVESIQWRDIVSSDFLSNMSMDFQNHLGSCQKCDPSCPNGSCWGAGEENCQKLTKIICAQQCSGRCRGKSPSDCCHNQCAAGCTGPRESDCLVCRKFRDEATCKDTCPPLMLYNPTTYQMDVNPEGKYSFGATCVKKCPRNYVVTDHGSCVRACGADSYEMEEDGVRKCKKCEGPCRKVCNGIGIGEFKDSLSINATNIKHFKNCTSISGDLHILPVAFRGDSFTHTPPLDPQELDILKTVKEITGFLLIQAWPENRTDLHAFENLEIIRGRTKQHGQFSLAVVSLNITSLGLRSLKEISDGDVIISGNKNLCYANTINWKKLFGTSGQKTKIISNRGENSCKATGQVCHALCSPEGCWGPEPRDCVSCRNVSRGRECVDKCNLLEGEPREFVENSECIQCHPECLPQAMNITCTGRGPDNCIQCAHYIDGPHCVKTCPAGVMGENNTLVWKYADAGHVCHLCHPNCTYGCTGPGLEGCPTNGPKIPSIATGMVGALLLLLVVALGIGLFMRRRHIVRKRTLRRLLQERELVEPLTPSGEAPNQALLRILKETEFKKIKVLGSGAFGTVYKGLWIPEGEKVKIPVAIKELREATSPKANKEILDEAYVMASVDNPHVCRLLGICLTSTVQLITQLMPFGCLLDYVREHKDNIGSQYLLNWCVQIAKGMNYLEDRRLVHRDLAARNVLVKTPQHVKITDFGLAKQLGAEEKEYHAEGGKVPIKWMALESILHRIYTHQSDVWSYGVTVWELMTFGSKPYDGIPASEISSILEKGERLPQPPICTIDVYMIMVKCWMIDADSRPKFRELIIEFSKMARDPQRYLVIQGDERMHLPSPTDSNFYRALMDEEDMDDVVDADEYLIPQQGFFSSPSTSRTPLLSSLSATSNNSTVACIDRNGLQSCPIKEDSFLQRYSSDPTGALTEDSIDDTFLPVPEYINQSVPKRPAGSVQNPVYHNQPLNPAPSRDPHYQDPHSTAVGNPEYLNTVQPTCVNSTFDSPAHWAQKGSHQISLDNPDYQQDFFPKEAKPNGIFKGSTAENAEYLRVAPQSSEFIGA

[30] = target: CSNK1G2 (Homo sapiens (Human), UniProt P78368); assay: KINOMEscan; format: binding; settings: 1 uM
[31] = target: EPHB4 (Homo sapiens (Human), UniProt P54760); assay: KINOMEscan; format: binding; settings: 1 uM
[32] = target: RET (V804M) (Homo sapiens (Human), UniProt P07949, V804M); assay: KINOMEscan; format: binding; settings: 1 uM
[33] = target: CAMK1G (Homo sapiens (Human), UniProt Q96NX5); assay: KINOMEscan; format: binding; settings: 1 uM
[34] = target: SBK1 (Homo sapiens (Human), UniProt Q52WX2); assay: KINOMEscan; format: binding; settings: 1 uM
[35] = target: SIK1 (Homo sapiens (Human), UniProt P57059); assay: Percent activity against SIK1 at 1 μM; format: biochemical
Sequence of SIK1 (P57059 whole entry): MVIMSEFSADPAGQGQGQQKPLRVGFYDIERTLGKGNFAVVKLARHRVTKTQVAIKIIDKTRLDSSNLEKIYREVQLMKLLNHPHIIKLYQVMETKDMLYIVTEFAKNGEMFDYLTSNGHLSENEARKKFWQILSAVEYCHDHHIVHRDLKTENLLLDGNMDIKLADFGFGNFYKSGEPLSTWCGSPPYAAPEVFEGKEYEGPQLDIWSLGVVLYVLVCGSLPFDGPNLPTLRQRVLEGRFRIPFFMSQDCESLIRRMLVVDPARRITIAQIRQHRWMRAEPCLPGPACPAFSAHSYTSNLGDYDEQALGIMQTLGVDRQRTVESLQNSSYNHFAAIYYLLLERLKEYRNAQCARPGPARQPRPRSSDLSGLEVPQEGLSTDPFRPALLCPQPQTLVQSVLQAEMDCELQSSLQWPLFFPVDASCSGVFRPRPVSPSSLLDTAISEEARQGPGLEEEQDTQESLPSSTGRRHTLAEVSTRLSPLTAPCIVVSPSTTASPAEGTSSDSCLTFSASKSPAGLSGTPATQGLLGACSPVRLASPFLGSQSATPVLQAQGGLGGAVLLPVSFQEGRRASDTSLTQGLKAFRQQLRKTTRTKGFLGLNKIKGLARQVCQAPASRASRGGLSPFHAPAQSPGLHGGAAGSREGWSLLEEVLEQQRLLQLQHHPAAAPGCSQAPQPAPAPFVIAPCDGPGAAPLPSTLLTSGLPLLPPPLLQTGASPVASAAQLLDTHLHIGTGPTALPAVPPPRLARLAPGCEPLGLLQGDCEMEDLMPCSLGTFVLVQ

[36] = target: PLK1 (Homo sapiens (Human), UniProt P53350); assay: KINOMEscan; format: binding; settings: 1 uM
Sequence of PLK1 (P53350 whole entry): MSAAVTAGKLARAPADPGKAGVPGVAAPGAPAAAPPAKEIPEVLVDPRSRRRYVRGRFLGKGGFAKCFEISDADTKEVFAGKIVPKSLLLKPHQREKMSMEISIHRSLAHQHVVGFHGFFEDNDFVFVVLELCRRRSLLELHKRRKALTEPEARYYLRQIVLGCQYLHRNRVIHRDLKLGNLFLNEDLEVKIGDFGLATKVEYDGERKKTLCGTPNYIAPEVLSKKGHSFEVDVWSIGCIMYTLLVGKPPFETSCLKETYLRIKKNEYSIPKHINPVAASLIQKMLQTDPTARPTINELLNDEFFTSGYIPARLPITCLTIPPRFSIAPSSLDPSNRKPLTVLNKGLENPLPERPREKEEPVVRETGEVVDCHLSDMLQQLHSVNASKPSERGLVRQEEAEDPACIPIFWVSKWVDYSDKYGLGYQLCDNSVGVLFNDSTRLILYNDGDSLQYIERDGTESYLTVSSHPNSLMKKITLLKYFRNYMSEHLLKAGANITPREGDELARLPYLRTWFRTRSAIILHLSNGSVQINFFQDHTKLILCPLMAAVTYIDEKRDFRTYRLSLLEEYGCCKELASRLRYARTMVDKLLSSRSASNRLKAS

[37] = target: PFTAIRE2 (Homo sapiens (Human), UniProt Q96Q40); assay: KINOMEscan; format: binding; settings: 1 uM
Sequence of PFTAIRE2 (Q96Q40 whole entry, looked up): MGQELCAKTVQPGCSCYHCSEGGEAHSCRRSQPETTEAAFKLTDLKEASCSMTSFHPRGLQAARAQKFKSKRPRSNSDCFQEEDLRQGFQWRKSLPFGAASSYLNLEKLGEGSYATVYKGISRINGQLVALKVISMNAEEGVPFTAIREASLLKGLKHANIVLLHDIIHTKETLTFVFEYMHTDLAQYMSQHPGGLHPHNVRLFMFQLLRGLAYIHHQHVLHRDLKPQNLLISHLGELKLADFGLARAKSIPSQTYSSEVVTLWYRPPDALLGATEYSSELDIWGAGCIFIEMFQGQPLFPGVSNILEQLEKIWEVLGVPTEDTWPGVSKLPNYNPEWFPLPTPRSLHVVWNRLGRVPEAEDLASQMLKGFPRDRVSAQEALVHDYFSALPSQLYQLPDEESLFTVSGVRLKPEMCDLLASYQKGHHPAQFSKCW

[38] = target: LCK (Homo sapiens (Human), UniProt P06239); assay: KINOMEscan; format: binding; settings: 1 uM
[39] = target: PRKCI (Homo sapiens (Human), UniProt P41743); assay: KINOMEscan; format: binding; settings: 1 uM

Sequence of EPHA6 (Q9UF33 23-1036): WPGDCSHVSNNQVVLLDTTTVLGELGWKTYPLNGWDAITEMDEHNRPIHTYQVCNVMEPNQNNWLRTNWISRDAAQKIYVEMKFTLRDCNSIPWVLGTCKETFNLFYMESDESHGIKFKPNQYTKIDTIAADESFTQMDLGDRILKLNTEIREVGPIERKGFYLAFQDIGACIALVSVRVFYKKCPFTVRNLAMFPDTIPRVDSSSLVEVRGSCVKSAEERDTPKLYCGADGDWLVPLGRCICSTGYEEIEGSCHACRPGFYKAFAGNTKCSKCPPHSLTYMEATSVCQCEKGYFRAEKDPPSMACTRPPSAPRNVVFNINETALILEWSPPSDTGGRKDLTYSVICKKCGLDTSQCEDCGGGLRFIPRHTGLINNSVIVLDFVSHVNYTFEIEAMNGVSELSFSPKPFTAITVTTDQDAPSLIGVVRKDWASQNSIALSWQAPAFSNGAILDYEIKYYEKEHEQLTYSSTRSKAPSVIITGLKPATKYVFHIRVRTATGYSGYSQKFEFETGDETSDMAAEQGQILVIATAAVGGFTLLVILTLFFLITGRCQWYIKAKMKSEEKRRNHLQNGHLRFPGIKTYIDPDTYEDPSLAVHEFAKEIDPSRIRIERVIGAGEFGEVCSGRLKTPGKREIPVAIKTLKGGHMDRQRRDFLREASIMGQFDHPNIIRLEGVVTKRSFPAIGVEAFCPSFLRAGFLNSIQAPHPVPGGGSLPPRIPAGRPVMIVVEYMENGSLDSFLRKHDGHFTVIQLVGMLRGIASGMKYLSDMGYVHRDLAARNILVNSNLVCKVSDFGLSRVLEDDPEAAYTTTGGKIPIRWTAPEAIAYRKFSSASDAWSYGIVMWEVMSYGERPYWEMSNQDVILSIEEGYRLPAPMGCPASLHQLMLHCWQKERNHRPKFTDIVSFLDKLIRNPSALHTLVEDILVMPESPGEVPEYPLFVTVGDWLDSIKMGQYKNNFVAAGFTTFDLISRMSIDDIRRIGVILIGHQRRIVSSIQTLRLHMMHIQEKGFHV

SMILES: COc1ccc(N2C(=O)N(c3c(C)cccc3C)Cc3cnc(Nc4ccc(N5CCN(C)CC5)cc4)nc32)c(OC)c1 [HG-11-136-01]
- KINOMEscan EPHA6 [1]: 0.2
- KINOMEscan MUSK [2]: 86
- KINOMEscan SGK [3]: 63
- KINOMEscan RET (M918T) [4]: 0.05
- KINOMEscan ERK4 [5]: 95
- KINOMEscan ABL1 (Y253F)-phosphorylated [6]: 0.15
- KINOMEscan KIT (L576P) [7]: 0
- KINOMEscan ERN1 [8]: 13
- KINOMEscan PIM1 [9]: 100
- KINOMEscan FLT3 (D835Y) [10]: 14
- KINOMEscan RET (V804L) [11]: 24
- KINOMEscan PRKCQ [12]: 80
- KINOMEscan TNNI3K [13]: 3.6
- KINOMEscan ASK2 [14]: 46
- KINOMEscan ABL1-nonphosphorylated [15]: 0
- KINOMEscan TTK [16]: 47
- KINOMEscan PLK3 [17]: 31
- KINOMEscan ZAP70 [18]: 25
- KINOMEscan RSK4 (Kin.Dom.1-N-terminal) [19]: 39
- KINOMEscan NDR1 [20]: 46
- KINOMEscan ABL1 (H396P)-phosphorylated [21]: 0
- KINOMEscan ABL1 (H396P)-nonphosphorylated [22]: 0
- KINOMEscan GAK [23]: 6.8
- KINOMEscan NEK6 [24]: 100
- KINOMEscan EGFR (L747-T751del, Sins) [25]: 0.3
- KINOMEscan FLT3 (R834Q) [26]: 48
- KINOMEscan KIT [27]: 0
- KINOMEscan WEE2 [28]: 82
- KINOMEscan EGFR (L861Q) [29]: 0
- KINOMEscan CSNK1G2 [30]: 100
- KINOMEscan EPHB4 [31]: 0
- KINOMEscan RET (V804M) [32]: 7.6
- KINOMEscan CAMK1G [33]: 95
- KINOMEscan SBK1 [34]: 6.6
- Enzyme activity at 1 μM (%) SIK1 ([35]; 1 μM): 19.1%
- SIK1 % ACTIVITY ([35]; compound at 1 μM, approximate Km for ATP): 19.1%
- KINOMEscan PLK1 [36]: 60
- KINOMEscan PFTAIRE2 [37]: 78
- KINOMEscan LCK [38]: 0.05
- KINOMEscan PRKCI [39]: 63
